According to US9056886B2, “Guanosine-rich modified oligonucleotides and antiproliferative activity thereof” (APTABIO THERAPEUTICS INC., priority 2009, dated 2015):
[5FU] = 5-fluorouracil base (5-fluoro-2'-deoxyuridine unit); [GEM] = 2',2'-difluoro-2'-deoxycytidine (gemcitabine); [5FC] = 5-fluoro-2'-deoxycytidine; d = 2'-deoxy (DNA)

Tests used:
[1] = tested on: PC-3 cell line (prostate cancer cell); assay: Cell apoptosis (XTT method) in PC-3 cells; assay type: cell-based; conditions: PC3 (Prostate Cancer Cells), cultured six days, XTT
Experimental: (§1) Each oligonucleotide was diluted in 10 mM Tris-HCl (pH 7.4) to a final concentration of 100 μM. The diluted solution was placed at 94° C. for 5 minutes and then quickly placed them on ice and left therein for 5 minutes. The resultant was added with 2M KCl to a final concentration of 50 mM, left at 60° C. for 3 hours and then slowly cooled down to room temperature.
(§2) One day before the experiment, 190 μL of culture, wherein PC-3 cell line(prostate cancer cell) was suspended at a concentration of 10^3-10^4/mL, was inoculated respectively into each well of a 96 well plate. The next day, 10 μL of the oligonucleotide solution prepared in Example 1 was added and cultured for six days. Six days after the inoculation, cell apoptosis rate measured by means of XTT method [JBC 1999, 26369].

[2] = tested on: MCF7-DX (Breast Cancer Cells), a drug-resistance cell line; assay: Cell apoptosis (XTT method) in MCF7-DX cells; assay type: cell-based
Experimental: [Worded in the source for another cell line; this cell line is reported under the same test.] as §1, §2
As a result, it was confirmed that the cell apoptosis rate of APT-2001, APT-2002 and APT-2003 (the novel modified oligonucleotides of the present invention), was 3-10 times higher than those of APT-4001 (positive control) and APT-4002 (negative control) as measured in terms of IC50 or IC90 (FIG. 2). […] In addition, the cell apoptotic activity of the oligonucleotides, prepared according to the present invention over the K562 CML (chronic myeloid leukemia), MV-4-11 AML (acute leukemia) cells, were also verified.

Substance | IC50 [1] | IC50 [2]
APT-2013: NNNGGNGGNGGNGGTTGTGGNGGNGGNGG (SEQ. ID. NO. 10); N=5-F-deoxyuridine, G=2-deoxy-guanosine, H=thymidine (DNA UUUGGUGGUGGUGGTTGTGGUGGUGGUGG; DNA, [5FU] at 1, 2, 3, 6, 9, 12, 21, 24, 27, backbone not given here) | 90 nM | 660 nM
APT-2020: GGTGGTGGNNNNGGTGGTGG (SEQ. ID. NO. 18); N=5-F-deoxyuridine, G=2-deoxy-guanosine, H=thymidine (DNA GGTGGTGGUUUUGGTGGTGG; DNA, [5FU] at 9, 10, 11, 12, backbone not given here) | 160 nM | 890 nM
APT-2022: GGTGGNNNNGGTGG (SEQ. ID. NO. 20); N=5-F-deoxyuridine, G=2-deoxy-guanosine, H=thymidine (DNA GGTGGUUUUGGTGG; DNA, [5FU] at 6, 7, 8, 9, backbone not given here) | 110 nM | 790 nM
APT-2023: GGNGGTGGNGG (SEQ. ID. NO. 21); N=5-F-deoxyuridine, G=2-deoxy-guanosine, H=thymidine (DNA GGUGGTGGUGG; DNA, [5FU] at 3, 9, backbone not given here) | 260 nM | 1860 nM
APT-2031: GGTGGTGGTNNTGGTGGTGG (SEQ. ID. NO. 23); N=5-F-deoxyuridine, G=2-deoxy-guanosine, H=thymidine (DNA GGTGGTGGTUUTGGTGGTGG; aptamer; DNA, [5FU] at 10, 11, backbone not given here) | > 10000 nM | 1500 nM
APT-2032: GGTGGTGGTTNTGGTGGTGG (SEQ. ID. NO. 24); N=5-F-deoxyuridine, G=2-deoxy-guanosine, H=thymidine (DNA GGTGGTGGTTUTGGTGGTGG; aptamer; DNA, [5FU] at 11, backbone not given here) | > 10000 nM | 3600 nM
APT-2033: GGTGGTGGTTTNGGTGGTGG (SEQ. ID. NO. 25); N=5-F-deoxyuridine, G=2-deoxy-guanosine, H=thymidine (DNA GGTGGTGGTTTUGGTGGTGG; aptamer; DNA, [5FU] at 12, backbone not given here) | > 10000 nM | 3300 nM
APT-2034: GGTGGTGGTNNNGGTGGTGG (SEQ. ID. NO. 26); N=5-F-deoxyuridine, G=2-deoxy-guanosine, H=thymidine (DNA GGTGGTGGTUUUGGTGGTGG; DNA, [5FU] at 10, 11, 12, backbone not given here) | > 10000 nM | 1200 nM
APT-2035: GGTGGTGGTTNTGGTGGTGG (SEQ. ID. NO. 24); N=2′,2′-difluoro deoxycytidine, G=2-deoxy-guanosine, H=thymidine (2',2'-difluoro deoxycytidine modified nucleosides, chemistry not fully specified) | 35 nM | 7 nM
APT-2040: GGTGGTGGTGGTTNTGGTGGTGGTGG (SEQ. ID. NO. 30); N=5-F-deoxyuridine, G=2-deoxy-guanosine, H=thymidine (DNA GGTGGTGGTGGTTUTGGTGGTGGTGG; DNA, [5FU] at 14, backbone not given here) | – | > 1000 nM
APT-2042: GGNGGNGGNGGTTGTGGNGGNGGNGG (SEQ. ID. NO. 32); N=5-F-deoxyuridine, G=2-deoxy-guanosine, H=thymidine (5-F-deoxyuridine modified nucleosides) | – | 500 nM
APT-2043: GGNGGNGGTGGTTGTGGTGGNGGNGG (SEQ. ID. NO. 33); N=5-F-deoxyuridine, G=2-deoxy-guanosine, H=thymidine (5-F-deoxyuridine modified nucleosides) | – | 600 nM
APT-2044: GGNGGTGGTGGTTGTGGTGGTGGNGG (SEQ. ID. NO. 34); N=5-F-deoxycytidine, G=2-deoxy-guanosine, H=thymidine (DNA GGCGGTGGTGGTTGTGGTGGTGGCGG; DNA, [5FC] at 3, 24, backbone not given here; G-quadruplex forming oligonucleotide) | – | > 1000 nM
APT-2054: GGTGGTGGTGGTTNTGGTGGTGGTGG (SEQ. ID. NO. 30); N=2′,2′-difluoro deoxycytidine, G=2-deoxy-guanosine, H=thymidine (DNA GGTGGTGGTGGTTCTGGTGGTGGTGG; sugars from the 5' end d13 [GEM]1 d12, backbone not given here; G-quadruplex forming oligonucleotide) | < 300 nM | < 300 nM
APT-2059: GGTGGTGGTNNTGGTGGTGG (SEQ. ID. NO. 23); N=2′,2′-difluoro deoxycytidine, G=2-deoxy-guanosine, H=thymidine (2',2'-difluoro deoxycytidine modified nucleosides, chemistry not fully specified) | 15 nM | 4 nM
APT-2060: GGTGGTGGNTGTGGTGGTGG (SEQ. ID. NO. 37); N=2′,2′-difluoro deoxycytidine, G=2-deoxy-guanosine, H=thymidine (aptamer; listed as DNA, chemistry not fully specified) | 40 nM | 23 nM
APT-2061: GGTGGTGGTNGTGGTGGTGG (SEQ. ID. NO. 38); N=2′,2′-difluoro deoxycytidine, G=2-deoxy-guanosine, H=thymidine (DNA GGTGGTGGTCGTGGTGGTGG; aptamer; sugars from the 5' end d9 [GEM]1 d10, backbone not given here; G-quadruplex forming oligonucleotide) | 41 nM | 22 nM
APT-2063: GGTGGTGGTNGNGGTGGTGG (SEQ. ID. NO. 40); N=2′,2′-difluoro deoxycytidine, G=2-deoxy-guanosine, H=thymidine (aptamer; listed as DNA, chemistry not fully specified) | 22 nM | 8 nM
APT-2064: GGNGGTGGTTGTGGTGGNGG (SEQ. ID. NO. 41); N=2′,2′-difluoro deoxycytidine, G=2-deoxy-guanosine, H=thymidine (DNA GGCGGTGGTTGTGGTGGCGG; sugars from the 5' end d2 [GEM]1 d14 [GEM]1 d2, backbone not given here; G-quadruplex forming oligonucleotide) | 16 nM | 8 nM
APT-2066: GGTGGTGGTGGTNNTGGTGGTGGTGG (SEQ. ID. NO. 29); N=2′,2′-difluoro deoxycytidine, G=2-deoxy-guanosine, H=thymidine (DNA GGTGGTGGTGGTCCTGGTGGTGGTGG; sugars from the 5' end d12 [GEM]2 d12, backbone not given here; G-quadruplex forming oligonucleotide) | 34 nM | 10 nM
APT-2067: GGTGGTGGTGGTNGTGGTGGTGGTGG (SEQ. ID. NO. 43); N=2′,2′-difluoro deoxycytidine, G=2-deoxy-guanosine, H=thymidine (DNA GGTGGTGGTGGTCGTGGTGGTGGTGG; sugars from the 5' end d12 [GEM]1 d13, backbone not given here; G-quadruplex forming oligonucleotide) | – | 24 nM
APT-2068: GGTGGTGGTGGTTGNGGTGGTGGTGG (SEQ. ID. NO. 31); N=2′,2′-difluoro deoxycytidine, G=2-deoxy-guanosine, H=thymidine (2',2'-difluoro deoxycytidine modified nucleosides, chemistry not fully specified) | – | 23 nM
APT-2069: GGTGGTGGTGGTNGNGGTGGTGGTGG (SEQ. ID. NO. 44); N=2′,2′-difluoro deoxycytidine, G=2-deoxy-guanosine, H=thymidine (2',2'-difluoro deoxycytidine modified nucleosides, chemistry not fully specified) | – | 10 nM
APT-2070: GGNGGTGGTGGTTGTGGTGGTGGTGG (SEQ. ID. NO. 45); N=2′,2′-difluoro deoxycytidine, G=2-deoxy-guanosine, H=thymidine (2',2'-difluoro deoxycytidine modified nucleosides, chemistry not fully specified) | 24 nM | 13 nM
APT-2071: GGTGGNGGTGGTTGTGGTGGNGGTGG (SEQ. ID. NO. 46); N=2′,2′-difluoro deoxycytidine, G=2-deoxy-guanosine, H=thymidine (2',2'-difluoro deoxycytidine modified nucleosides, chemistry not fully specified) | – | 15 nM
APT-2072: GGTGGTGGTTNTGGTGGTGGN (SEQ. ID. NO. 47); N=2′,2′-difluoro deoxycytidine, G=2-deoxy-guanosine, H=thymidine (2',2'-difluoro deoxycytidine modified nucleosides, chemistry not fully specified) | 12 nM | –
